Tests used:
Assay in all cases: full kinase panel biochemical assay
FLT1/VEGFR1 = FLT1/VEGFR1 (Homo sapiens, UniProt P17948); details: single concentration of 1 μM; read-out: percent inhibition of FLT1/VEGFR1
Description: (§1) In order to measure the protein kinase inhibitory activity (% inhibition) of the compound of the present invention, biochemical assay was performed in the full kinase panel. As a test compound, Compound No. 4 was used. The percent inhibition of each kinase when treated with the test compound at a single concentration of 1 μM was measured, and the residual enzyme activity values (%) of the kinases were calculated. Kinases whose calculated residual enzyme activity values (%) was 30% or less (i.e., kinases inhibited by 70% or more) are as follows: ABL1, ABL2/ARG, ACK1, ARAF, BLK, BMX/ETK, BRAF, BRK, BTK, c-Kit, c-Src, CSK, DDR1, DDR2, EPHA1, EPHA2, EPHA3, EPHA4, EPHA5, EPHA6, EPHA7, EPHA8, EPHB1, EPHB2, EPHB3, EPHB4, ERBB2/HER2, ERBB4/HER4, FGFR1, FGFR2, FGFR3, FGR, FLT1/VEGFR1, FLT4/VEGFR3, FMS, FRK/PTK5, FYN, GCK/MAP4K2, HCK, HGK/MAP4K4, JAK1, JAK2, KDR/VEGFR2, KHS/MAP4K5, LCK, LYN, LYN B, MEKK1, MLK4, MYLK3, NEK5, P38a/MAPK14, P38b/MAPK11, PDGFRa, PDGFRb, PEAK1, RET, RIPK2, RIPK4, SIK2, SRPK1, TAOK3/JIK, TLK1, TNK1, TXK, TYK2, YES/YES1, YSK4/MAP3K19, and ZAK/MLTK.

EPHB1 = EPHB1 (Homo sapiens, UniProt P54762); details: single concentration of 1 μM; read-out: percent inhibition of EPHB1
Description: as §1

c-Kit = c-Kit (Homo sapiens, UniProt P10721); details: single concentration of 1 μM; read-out: percent inhibition of c-Kit
Description: as §1

JAK2 = JAK2 (Homo sapiens, UniProt O60674); details: single concentration of 1 μM; read-out: percent inhibition of JAK2
Description: as §1

EPHA1 = EPHA1 (Homo sapiens, UniProt P21709); details: single concentration of 1 μM; read-out: percent inhibition of EPHA1
Description: as §1

GCK/MAP4K2 = GCK/MAP4K2 (Homo sapiens, UniProt Q12851); details: single concentration of 1 μM; read-out: percent inhibition of GCK/MAP4K2
GCK/MAP4K2, sequence (Q12851 whole entry): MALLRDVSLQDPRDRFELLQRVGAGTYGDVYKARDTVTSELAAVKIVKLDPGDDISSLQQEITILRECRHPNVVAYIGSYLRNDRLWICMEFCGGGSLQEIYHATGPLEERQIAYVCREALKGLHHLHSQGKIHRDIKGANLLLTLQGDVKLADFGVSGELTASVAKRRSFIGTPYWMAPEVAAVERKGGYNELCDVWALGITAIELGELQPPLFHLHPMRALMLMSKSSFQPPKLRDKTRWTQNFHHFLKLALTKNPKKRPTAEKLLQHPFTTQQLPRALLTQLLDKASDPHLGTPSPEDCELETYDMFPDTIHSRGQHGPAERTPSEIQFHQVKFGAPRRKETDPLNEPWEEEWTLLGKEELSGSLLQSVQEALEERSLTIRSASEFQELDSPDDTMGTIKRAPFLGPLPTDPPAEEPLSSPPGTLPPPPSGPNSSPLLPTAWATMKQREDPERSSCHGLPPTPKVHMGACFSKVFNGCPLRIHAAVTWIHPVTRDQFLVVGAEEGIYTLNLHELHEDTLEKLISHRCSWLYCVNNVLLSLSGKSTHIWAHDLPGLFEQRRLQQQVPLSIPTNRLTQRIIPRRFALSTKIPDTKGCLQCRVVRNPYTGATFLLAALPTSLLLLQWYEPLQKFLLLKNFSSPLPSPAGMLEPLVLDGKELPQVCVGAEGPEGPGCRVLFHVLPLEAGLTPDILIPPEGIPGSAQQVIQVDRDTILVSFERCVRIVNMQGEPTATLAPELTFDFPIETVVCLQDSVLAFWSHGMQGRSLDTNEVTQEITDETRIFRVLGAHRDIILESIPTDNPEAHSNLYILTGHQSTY
Description: as §1

LYN B = LYN B (Homo sapiens, UniProt P07948); details: single concentration of 1 μM; read-out: percent inhibition of LYN B
LYN B, sequence (P07948 1-491 isoform P07948-2): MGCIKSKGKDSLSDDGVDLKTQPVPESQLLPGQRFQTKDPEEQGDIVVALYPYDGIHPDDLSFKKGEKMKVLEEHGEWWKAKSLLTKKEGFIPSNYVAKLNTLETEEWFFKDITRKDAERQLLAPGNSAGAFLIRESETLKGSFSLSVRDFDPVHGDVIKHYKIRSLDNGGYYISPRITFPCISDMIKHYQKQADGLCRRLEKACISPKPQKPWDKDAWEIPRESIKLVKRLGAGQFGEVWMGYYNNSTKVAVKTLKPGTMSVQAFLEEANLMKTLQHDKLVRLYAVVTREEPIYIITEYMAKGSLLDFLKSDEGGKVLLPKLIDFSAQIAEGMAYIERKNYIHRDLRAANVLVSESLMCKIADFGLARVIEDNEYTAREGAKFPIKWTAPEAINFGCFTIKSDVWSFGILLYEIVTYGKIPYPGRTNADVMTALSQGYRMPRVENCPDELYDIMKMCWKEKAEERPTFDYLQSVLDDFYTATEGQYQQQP
Description: as §1

BMX/ETK = BMX/ETK (Homo sapiens, UniProt P51813); details: single concentration of 1 μM; read-out: percent inhibition of BMX/ETK
Description: as §1

EPHA5 = EPHA5 (Homo sapiens, UniProt P54756); details: single concentration of 1 μM; read-out: percent inhibition of EPHA5
Description: as §1

BRAF = BRAF (Homo sapiens, UniProt P15056); details: single concentration of 1 μM; read-out: percent inhibition of BRAF
Description: as §1

PEAK1 = PEAK1 (Homo sapiens, UniProt Q9H792); details: single concentration of 1 μM; read-out: percent inhibition of PEAK1
Description: as §1

MLK4 = MLK4 (Homo sapiens, UniProt Q5TCX8); details: single concentration of 1 μM; read-out: percent inhibition of MLK4
MLK4, sequence (Q5TCX8 whole entry): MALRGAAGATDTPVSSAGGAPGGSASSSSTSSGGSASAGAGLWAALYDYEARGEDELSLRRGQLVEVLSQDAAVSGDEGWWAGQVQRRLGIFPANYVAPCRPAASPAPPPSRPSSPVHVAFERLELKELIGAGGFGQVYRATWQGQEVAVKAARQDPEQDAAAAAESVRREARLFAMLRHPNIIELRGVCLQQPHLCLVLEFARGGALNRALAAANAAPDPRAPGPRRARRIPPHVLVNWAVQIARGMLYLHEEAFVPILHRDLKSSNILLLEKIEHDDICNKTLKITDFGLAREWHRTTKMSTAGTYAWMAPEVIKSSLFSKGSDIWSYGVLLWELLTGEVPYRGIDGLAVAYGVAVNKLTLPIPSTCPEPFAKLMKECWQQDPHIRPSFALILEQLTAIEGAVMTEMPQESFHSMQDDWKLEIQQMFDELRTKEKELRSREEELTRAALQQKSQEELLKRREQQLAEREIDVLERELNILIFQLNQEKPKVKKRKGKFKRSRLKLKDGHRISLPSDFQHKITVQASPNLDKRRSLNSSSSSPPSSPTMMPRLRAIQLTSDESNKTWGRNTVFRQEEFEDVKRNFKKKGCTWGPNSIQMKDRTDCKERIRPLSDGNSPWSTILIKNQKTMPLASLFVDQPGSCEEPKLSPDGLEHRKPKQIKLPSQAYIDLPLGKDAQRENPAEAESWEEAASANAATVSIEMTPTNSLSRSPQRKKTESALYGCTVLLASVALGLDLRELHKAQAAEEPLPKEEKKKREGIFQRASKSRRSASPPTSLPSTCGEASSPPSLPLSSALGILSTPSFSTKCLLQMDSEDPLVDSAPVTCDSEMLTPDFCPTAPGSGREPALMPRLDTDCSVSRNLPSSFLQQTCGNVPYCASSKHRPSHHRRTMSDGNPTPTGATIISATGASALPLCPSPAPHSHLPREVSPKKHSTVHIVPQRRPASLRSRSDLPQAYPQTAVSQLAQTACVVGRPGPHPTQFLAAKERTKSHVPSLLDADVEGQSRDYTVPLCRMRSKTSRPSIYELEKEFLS
Description: as §1

EPHB3 = EPHB3 (Homo sapiens, UniProt P54753); details: single concentration of 1 μM; read-out: percent inhibition of EPHB3
Description: as §1

TAOK3/JIK = TAOK3/JIK (Homo sapiens, UniProt Q9H2K8); details: single concentration of 1 μM; read-out: percent inhibition of TAOK3/JIK
Description: as §1

YES/YES1 = YES/YES1 (Homo sapiens, UniProt P07947); details: single concentration of 1 μM; read-out: percent inhibition of YES/YES1
Description: as §1

HGK/MAP4K4 = HGK/MAP4K4 (Homo sapiens, UniProt O95819); details: single concentration of 1 μM; read-out: percent inhibition of HGK/MAP4K4
HGK/MAP4K4, sequence (O95819 whole entry): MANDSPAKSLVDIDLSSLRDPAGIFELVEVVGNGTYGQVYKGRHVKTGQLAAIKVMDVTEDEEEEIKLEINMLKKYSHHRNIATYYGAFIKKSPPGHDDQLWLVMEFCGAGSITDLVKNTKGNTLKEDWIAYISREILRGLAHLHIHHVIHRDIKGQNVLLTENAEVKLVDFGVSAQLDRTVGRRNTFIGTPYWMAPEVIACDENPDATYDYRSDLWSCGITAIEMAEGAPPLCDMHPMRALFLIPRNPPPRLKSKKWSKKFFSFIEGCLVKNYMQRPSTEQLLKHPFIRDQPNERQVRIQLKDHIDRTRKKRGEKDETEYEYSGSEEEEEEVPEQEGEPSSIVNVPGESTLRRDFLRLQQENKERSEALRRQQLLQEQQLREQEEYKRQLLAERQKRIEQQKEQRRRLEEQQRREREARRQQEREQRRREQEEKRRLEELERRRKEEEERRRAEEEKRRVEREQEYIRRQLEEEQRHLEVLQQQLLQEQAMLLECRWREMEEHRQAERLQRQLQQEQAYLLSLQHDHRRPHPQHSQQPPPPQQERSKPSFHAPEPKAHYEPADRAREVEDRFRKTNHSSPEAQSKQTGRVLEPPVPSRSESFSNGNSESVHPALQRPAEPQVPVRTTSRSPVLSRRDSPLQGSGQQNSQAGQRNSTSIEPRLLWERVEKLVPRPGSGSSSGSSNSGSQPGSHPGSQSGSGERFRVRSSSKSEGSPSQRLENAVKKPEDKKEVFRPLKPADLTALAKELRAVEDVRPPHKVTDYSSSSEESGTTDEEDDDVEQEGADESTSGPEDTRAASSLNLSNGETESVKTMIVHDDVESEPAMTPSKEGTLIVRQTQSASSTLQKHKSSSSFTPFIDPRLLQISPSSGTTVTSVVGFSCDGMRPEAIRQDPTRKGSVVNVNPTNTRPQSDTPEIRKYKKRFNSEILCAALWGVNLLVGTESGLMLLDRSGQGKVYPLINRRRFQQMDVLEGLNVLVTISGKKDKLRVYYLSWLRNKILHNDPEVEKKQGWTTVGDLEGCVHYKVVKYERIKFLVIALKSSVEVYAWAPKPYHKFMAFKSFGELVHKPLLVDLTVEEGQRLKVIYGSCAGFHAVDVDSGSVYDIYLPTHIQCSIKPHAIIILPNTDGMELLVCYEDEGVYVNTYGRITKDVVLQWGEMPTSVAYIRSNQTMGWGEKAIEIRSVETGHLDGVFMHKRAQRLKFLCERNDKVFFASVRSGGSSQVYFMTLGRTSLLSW
Description: as §1

PDGFRb = PDGFRb (Homo sapiens, UniProt P09619); details: single concentration of 1 μM; read-out: percent inhibition of PDGFRb
Description: as §1

ARAF = ARAF (Homo sapiens, UniProt P10398); details: single concentration of 1 μM; read-out: percent inhibition of ARAF
Description: as §1

FRK/PTK5 = FRK/PTK5 (Homo sapiens, UniProt P42685); details: single concentration of 1 μM; read-out: percent inhibition of FRK/PTK5
FRK/PTK5, sequence (P42685 whole entry): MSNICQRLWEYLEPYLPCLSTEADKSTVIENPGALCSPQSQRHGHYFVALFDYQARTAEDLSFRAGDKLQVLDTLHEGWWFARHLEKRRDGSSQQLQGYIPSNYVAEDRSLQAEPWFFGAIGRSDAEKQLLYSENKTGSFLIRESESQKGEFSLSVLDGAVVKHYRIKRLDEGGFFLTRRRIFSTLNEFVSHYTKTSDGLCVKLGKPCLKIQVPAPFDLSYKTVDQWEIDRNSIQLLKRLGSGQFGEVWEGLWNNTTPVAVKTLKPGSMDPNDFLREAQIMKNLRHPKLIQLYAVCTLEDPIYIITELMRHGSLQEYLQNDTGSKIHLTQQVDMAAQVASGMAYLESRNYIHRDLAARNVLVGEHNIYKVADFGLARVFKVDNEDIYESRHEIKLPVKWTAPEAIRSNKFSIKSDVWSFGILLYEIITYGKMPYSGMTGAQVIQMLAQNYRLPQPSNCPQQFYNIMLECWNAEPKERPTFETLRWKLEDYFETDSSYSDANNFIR
Description: as §1

DDR2 = DDR2 (Homo sapiens, UniProt Q16832); details: single concentration of 1 μM; read-out: percent inhibition of DDR2
Description: as §1

MYLK3 = MYLK3 (Homo sapiens, UniProt Q32MK0); details: single concentration of 1 μM; read-out: percent inhibition of MYLK3
MYLK3, sequence (Q32MK0 whole entry): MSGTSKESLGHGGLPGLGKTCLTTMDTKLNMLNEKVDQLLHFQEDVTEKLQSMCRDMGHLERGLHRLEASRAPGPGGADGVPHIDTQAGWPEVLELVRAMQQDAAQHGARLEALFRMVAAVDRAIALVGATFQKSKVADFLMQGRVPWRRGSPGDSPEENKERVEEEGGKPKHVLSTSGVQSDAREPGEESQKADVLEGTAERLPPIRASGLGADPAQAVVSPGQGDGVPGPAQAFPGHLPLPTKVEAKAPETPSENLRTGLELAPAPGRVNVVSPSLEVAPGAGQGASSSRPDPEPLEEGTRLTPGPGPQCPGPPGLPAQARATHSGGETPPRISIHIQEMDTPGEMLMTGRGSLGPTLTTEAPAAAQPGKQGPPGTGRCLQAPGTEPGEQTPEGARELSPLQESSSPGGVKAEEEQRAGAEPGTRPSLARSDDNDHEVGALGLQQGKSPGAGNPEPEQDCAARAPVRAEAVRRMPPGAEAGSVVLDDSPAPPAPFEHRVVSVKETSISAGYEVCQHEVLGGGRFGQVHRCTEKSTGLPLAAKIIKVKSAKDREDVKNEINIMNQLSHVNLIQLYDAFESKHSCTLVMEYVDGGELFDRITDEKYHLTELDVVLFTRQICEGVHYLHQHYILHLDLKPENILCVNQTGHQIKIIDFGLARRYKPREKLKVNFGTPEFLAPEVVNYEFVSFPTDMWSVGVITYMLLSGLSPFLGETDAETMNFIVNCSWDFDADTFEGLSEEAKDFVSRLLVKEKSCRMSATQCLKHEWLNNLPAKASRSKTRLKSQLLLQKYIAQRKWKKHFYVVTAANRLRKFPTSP
Description: as §1

inhibition at 1 µM (FLT1/VEGFR1): ≥ 70%
inhibition at 1 µM (EPHB1): ≥ 70%
inhibition at 1 µM (c-Kit): ≥ 70%
inhibition at 1 µM (JAK2): ≥ 70%
inhibition at 1 µM (EPHA1): ≥ 70%
inhibition at 1 µM (GCK/MAP4K2): ≥ 70%
inhibition at 1 µM (LYN B): ≥ 70%
inhibition at 1 µM (BMX/ETK): ≥ 70%
inhibition at 1 µM (EPHA5): ≥ 70%
inhibition at 1 µM (BRAF): ≥ 70%
inhibition at 1 µM (PEAK1): ≥ 70%
inhibition at 1 µM (MLK4): ≥ 70%
inhibition at 1 µM (EPHB3): ≥ 70%
inhibition at 1 µM (TAOK3/JIK): ≥ 70%
inhibition at 1 µM (YES/YES1): ≥ 70%
inhibition at 1 µM (HGK/MAP4K4): ≥ 70%
inhibition at 1 µM (PDGFRb): ≥ 70%
inhibition at 1 µM (ARAF): ≥ 70%
inhibition at 1 µM (FRK/PTK5): ≥ 70%
inhibition at 1 µM (DDR2): ≥ 70%
inhibition at 1 µM (MYLK3): ≥ 70%
SMILES: Cc1ccc(Nc2ncc3cc(-c4cc(NC(=O)c5cccc(C(F)(F)F)c5)ccc4C)ncc3n2)cn1 [Compound No. 4, N-(4-methyl-3-(2-((6-methylpyridin-3-yl)amino)pyrido[3,4-d]pyrimidin-6-yl)phenyl)-3-(trifluoromethyl)benzamide]
